Data: patent US4639468A, “Derivatives of glycinamide, their preparation and their use” (priority 1979, dated 1987)
Where two headings read alike, the source gives them in different places.

Key:
[1] = test system: convulsions induced by bicuculline; assay: in vivo; settings: for bicuculline (score: sum of animals protected by dosages of 10 and 100 mgr/kg): oral, 5 mice each, 3 hours before bicuculline 0.6 mgr/kg i.v., tonic convulsions; for ED50: Mus musculus, iv, 3 h, read-out: DE50
Protocol: (§1) The anticonvulsive effect was examined for tonic convulsions induced by bicuculline. The compounds of the invention were administrated orally at dosages of 10 and 100 mgr/kg, each to 5 mice, 3 hours before intravenous injection of bicuculline at the dosage of 0.6 mgr/kg. The number of mice protected against tonic convulsions and the number of dead mice were noted.
(§2) Amongst the substances according to the invention, 2-n-pentylaminoacetamideand its hydrochloride were more particularly studied. […] The hydrochloride was also administered intravenously. […] Table III also gives the therapeutical index (LD50/ED50).

mice = assay: in vivo; settings: oral, mice; Table II
in vivo [2] = settings: mouse, in vivo, po, read-out: DL50 (the source's name)
[3] = test system: decarboxylase glutamate (GAD); assay: activity of decarboxylase glutamate (GAD) in homogenizates of rat brain; format: biochemical; settings: 10^-4 M
Protocol: The substances of the invention have the property of inhibiting convulsions induced by bicculline in mouse. […] As a matter of fact, bucuculline is a specific antoganist of GABA. Besides, the effect of the products on the activity of the GABA synthesis enzyme, decarboxylase glutamate (GAD), was studied. The activity of the GAD was determined in homogenizates of rat brain according to the method described by L. Parker (Methods in Enzymology, Ed. S. Fleischer, 1974, Vol. XXXII, part V., p. 779). […] In general, the products of the invention […] the activity of the […] (GABA-T), enzyme of GABA catabolism, which results in an increase of the GABA levels at the level of GABA-ergic neurons.

mortality caused by KCN = assay: protection of mice against mortality caused by KCN; format: in vivo, mouse
platelet agglutination = assay: inhibition of platelet agglutination in human plasma (turbidimetric method of Born and Cross, Trombofax); format: cell-based; settings: human plasma rich in platelets, preincubated 3 minutes before Trombofax
Protocol: The measure of the inhibition of platelet agglutination is made according to the turbidimetric method of G. V. R. Born and M. J. Cross (J. Physiol. 168, 178, […]). The plasma rich in platelets is preincubated for 3 minutes before introduction of the inductor agent, Trombofax. The inhibion of the maximum amplitude of agglutination is measured by means of Upchurch agglutometer. In this test, compounds 1, 11, 14 and 18 have shown as being active.

in vivo [4] = settings: mouse, in vivo, po
Protocol: as §1, §2

[5] = test system: convulsions induced by strychnine; assay: convulsions induced by strychnine; settings: in vivo

| Structure (SMILES) | bicuculline (score: sum of animals protected by dosages of 10 and 100 mgr/kg) [1] | LD50 (in vivo [2]; mice, Table II) | further results |
| --- | --- | --- | --- |
| CCCCCCNCC(N)=O [Compound 2, 2-n-hexylaminoacetamide] | 4 |  | DL50 (mice): 780 mg/kg |
| NC(=O)CNCCCCCCO [Compound 4] | 4 | > 3000 mg/kg |  |
| NC(=O)CN(CCCCCCO)CC(N)=O [Compound 5] | 2 | > 3000 mg/kg |  |
| COC(=O)CCCCCN(CC(N)=O)CC(N)=O [Compound 6, Methyl 6-(dicarboxamidomethyl)aminohexanoate] | 6 | > 3000 mg/kg |  |
| NC(=O)CNCCCCO [Compound 7] | 2 |  |  |
| COC(=O)CCCCCNCC(N)=O [Compound 8] | 1 | > 3000 mg/kg | effect on the activity of GAD [3]: particularly remarkable |
| CCCCCCCNCC(N)=O [Compound 9, 2-n-Heptylaminoacetamide] | 5 | 1420 mg/kg | protection against mortality caused by KCN (mortality caused by KCN): protect mice against mortality caused by KCN |
| CCCCCCCCCCCCCCCCCCNCC(N)=O [Compound 10, 2-n-octadecylaminoacetamide] | 1 | > 3000 mg/kg |  |
| CCCCCCCCCNCC(N)=O [Compound 11] | 2 | 1950 mg/kg | inhibition of platelet agglutination (platelet agglutination): active |
| CCCCCCNCC(N)=O [Compound 12, 2-n-hexylaminoacetamide] | 5 |  | DL50 (mice): 2800 mg/kg |
| CCCCCCCCCCCCNCC(N)=O [Compound 13, 2-n-docecylaminoacetamide] | 2 | > 3000 mg/kg |  |
| CCCCCCCCCCNCC(N)=O [Compound 14, 2-n-decylaminoacetamide] | 6 | 2600 mg/kg | inhibition of platelet agglutination (platelet agglutination): active |
| CCOC(=O)CCCCCCCNCC(N)=O [Compound 16] | 5 | > 1000 mg/kg |  |
| CCCCCCCCC=CCCCCCCCCNCC(N)=O [Compound 17, 2-n-octadecen-9-ylaminoacetamide] | 2 | > 3000 mg/kg |  |
| CCCCCCCC(C)NCC(N)=O (stereo not drawn) [Compound 18] | 2 | > 1000 mg/kg | inhibition of platelet agglutination (platelet agglutination): active |
| CCCCCNCC(N)=O [Compound 20] | 1 |  | DL50 (mice): > 1000 mg/kg |
| COC(=O)CCCCCCCNC(C(N)=O)C(N)=O [Compound 23, Methyl 8-(dicarboxamidomethyl)aminooctanoate] | 7 |  | DL50 (mice): > 1000 mg/kg |
| CCCCCCN(CC(N)=O)C(=O)c1ccccc1 [Compound 25] | 5 | 3660 mg/kg |  |
| CCCCCNCC(N)=O [Compound 26] | 3 |  | DL50 (mice): 1950 mg/kg |
| CCCCCCNCC(N)=O [Compound 27] | 4 |  | DL50 (mice): 860 mg/kg |
| CCCCCCN(CC)CC(N)=O [Compound 28] | 5 | 435 mg/kg |  |
| CCCCCCN(C)CC(N)=O [Compound 30, 2-(N-n-hexyl-N-methylamino)acetamide] | 4 | 570 mg/kg |  |
| CCCCCCNCC(N)=O [Compound 31] | 6 |  | DL50 (mice): 1650 mg/kg |
| CCCCCNCC(N)=O [Compound 34] | 5 |  | DL50 (mice): > 3000 mg/kg |

| Structure (SMILES) | bicuculline (score: sum of animals protected by dosages of 10 and 100 mgr/kg) [1] | LD50 (in vivo [2]; mice, Table II) | further results |
| --- | --- | --- | --- |
| CCCCCNCC(N)=O [Compound 35] | 3 |  | DL50 (mice): > 3000 mg/kg |
| NC(=O)CNCCc1ccccc1 [Compound 36, 2-(2-phenylethyl)aminocacetamide] | 7 |  |  |
| CCCCCCNCC(=O)NCCCCCC [Compound 37, N-n-hexyl-2-(n-hexylamino)acetamide] | 3 |  |  |
| CCCCCCNCC(=O)NC [Compound 38] | 3 |  |  |
| C=CCCCCCNCC(N)=O [Compound 40] | 4 |  |  |
| CCCCCNC(C)C(N)=O (stereo not drawn) [Compound 41] | 4 |  |  |
| C#CC(C)(C)NCC(N)=O [Compound 42, 2-(1,1-dimethylpropyn-2-yl)aminoacetamide] | 6 |  |  |
| CCCCCCN(CC(N)=O)C(=O)C(C)(C)C [Compound 45] | 3 |  |  |
| CCCCCNC(C(N)=O)c1ccccc1 (stereo not drawn) [Compound 46] | 5 |  |  |
| CCCCCCN(CC(N)=O)C(=O)OCC [Compound 47, Ethyl N-n-hexyl-N-carboxamidomethylcarbamate] | 8 |  |  |
| CCCCCNC(CC)C(N)=O (stereo not drawn) [Compound 48, 2-(n-pentylamino)-butyramide] | 6 |  |  |
| NC(=O)CNCCCc1ccccc1 [Compound 49, 2-(3-phenylpropyl)aminoacetamide] | 7 |  |  |
| C=CCCCCCCNCC(N)=O [Compound 50] | 6 |  |  |
| NC(=O)CNCCCCCCCC(=O)O [Compound 51, 8-carboxamidomethylaminooctanoic acid] | 6 |  |  |
| NC(=O)CNCCCCc1ccccc1 [Compound 52, 2-(4-phenylbutyl)aminoacetamide] | 7 |  |  |
| CCCCCCNCC(=O)Nc1cccc(Cl)c1 [Compound 53] | 4 |  |  |
| CCCCCCNCC(=O)N(C)C [Compound 54] | 4 |  |  |
| CCCCNC(=O)C(C(C)C)N(CCCCOc1ccccc1)C(C)=O (stereo not drawn) [Compound 55, N-n-butyl-2-[N-acetyl-N-(4-phenoxybutyl)]aminoisovaleramide] | 6 |  |  |
| NC(=O)CNCCC(c1ccccc1)c1ccccc1 [Compound 56] | 4 |  |  |
| NC(=O)CNCCOc1ccccc1 [Compound 57] | 5 |  |  |
| O=C1NC(=O)C(c2ccccc2)(c2ccccc2)N1 [Na Diphenylhydantoin, reference compound] |  |  | ED50 [1]: 2.63 mg/kg |
| CCC1(c2ccccc2)C(=O)NC(=O)NC1=O [Na Phenobarbital, reference compound] |  |  | selectivity ratio (in vivo [4]): 88; ED50 [1]: 2.11 mg/kg; LD50 (in vivo [2]; Table III): 185 mg/kg |
| CCCC(CCC)C(=O)O [Na Valproate, reference compound] |  |  | selectivity ratio (in vivo [4]): 14; ED50 [1]: 89.1 mg/kg; LD50 (in vivo [2]; Table III): 1250 mg/kg; activity against convulsions induced by strychnine [5]: inactive |
